Assays:
[1] = target: Cdk5/p25 (Homo sapiens, UniProt Q00535); experiment: Cdk5/p25 radiometric kinase inhibition assay; format: biochemical
[2] = system: phosphorylated tau at Serine 235 (Ptau235) in primary neurons; experiment: inhibition of tau phosphorylation; format: cell-based; details: rat primary neurons, 4 h at 37 °C, Ptau235 immunoblot

Sequence of Cdk5/p25 (Q00535 whole entry): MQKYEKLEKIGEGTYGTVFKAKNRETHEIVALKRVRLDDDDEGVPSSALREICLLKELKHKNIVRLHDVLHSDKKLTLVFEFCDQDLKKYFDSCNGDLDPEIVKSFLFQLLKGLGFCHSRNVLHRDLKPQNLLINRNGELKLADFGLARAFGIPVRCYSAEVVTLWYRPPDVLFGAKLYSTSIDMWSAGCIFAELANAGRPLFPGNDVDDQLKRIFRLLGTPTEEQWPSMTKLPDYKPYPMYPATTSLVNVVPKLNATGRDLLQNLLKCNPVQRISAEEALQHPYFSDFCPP
Sequence of Cdk5/p25 (Q15078 99-307 partner limits assumed): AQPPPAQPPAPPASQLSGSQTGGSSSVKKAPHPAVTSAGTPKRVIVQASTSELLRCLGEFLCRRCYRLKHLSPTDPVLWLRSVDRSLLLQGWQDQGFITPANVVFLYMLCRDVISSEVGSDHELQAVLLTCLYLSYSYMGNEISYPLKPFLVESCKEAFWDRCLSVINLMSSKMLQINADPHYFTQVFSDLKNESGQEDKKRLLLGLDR

Cdk5/p25 inhibitory activity (in words) ([1]; radiometric assay) | binding ΔΔG ([1]; calculated from the listed activities for the pair 26 and 28) [kcal/mol] | Structure (SMILES) | inhibition of tau phosphorylation (in words) [2]
abolished inhibitory activity |  | CNc1nc(Nc2cccnc2)sc1C(=O)c1ccccc1F [Compound 43] | 
 | -2.6 | Nc1nc(Nc2cccnc2)sc1C(=O)c1ccccc1F [Compound 26] | dose-dependent inhibition of tau phosphorylation

Reference: paper PMC3062192 (Bioorganic & medicinal chemistry letters, 2011)
